Source: ChEMBL document CHEMBL2311324, “Inhibitors of HIV-1 attachment. Part 10. The discovery and structure-activity relationships of 4-azaindole cores” (Bioorg Med Chem Lett, 2013)

What was measured:
[1] = Cytotoxicity against human HeLa cells expressing CD4, CCR5 after 3 days; type: cell-based; settings: HeLa cells expressing CD4 and CCR5
[2] = tested on: Human immunodeficiency virus 1; assay: Antiviral activity against HIV1 JR-FL in human HeLa cells expressing CD4, CCR5 assessed as inhibition of integration of viral DNA into cell genome after 3 days by luciferase reporter gene assay; type: functional, organism-based; settings: Human immunodeficiency virus 1, JR-FL, 72 h
Rattus norvegicus [3] = assay: Oral bioavailability in rat at 5 mg/kg; type: ADME, organism-based; settings: in vivo
Rattus norvegicus [4] = assay: AUC in rat at 5 mg/kg, po; type: ADME, organism-based, Plasma; set-up: dose 5 mg/kg, route oral; settings: in vivo

| SMILES | CC50 at 72 h [1] [nM] | EC50 [2] [nM] | F (Rattus norvegicus [3]) [%] | AUC (Rattus norvegicus [4]) [µM·h] |
| --- | --- | --- | --- | --- |
| O=C(C(=O)N1CCN(C(=O)c2ccccc2)CC1)c1c[nH]c2c(-c3ncco3)ccnc12 | > 300000 | 0.39 | – | – |
| Cc1cnn(-c2ccnc3c(C(=O)C(=O)N4CCN(C(=O)c5ccccc5)[C@H](C)C4)c[nH]c23)c1 | > 150000 | 1.59 | – | – |
| C[C@@H]1CN(C(=O)C(=O)c2c[nH]c3c(-n4nc5ccccc5n4)ccnc23)CCN1C(=O)c1ccccc1 | 74000 | 0.31 | – | – |
| C[C@@H]1CN(C(=O)C(=O)c2c[nH]c3c(-n4nnc5ccccc54)ccnc23)CCN1C(=O)c1ccccc1 | 71000 | 5.34 | – | – |
| Cc1ncn(-c2ccnc3c(C(=O)C(=O)N4CCN(C(=O)c5ccccc5)[C@H](C)C4)c[nH]c23)n1 | > 300000 | 0.59 | – | – |
| Cc1ncnn1-c1ccnc2c(C(=O)C(=O)N3CCN(C(=O)c4ccccc4)[C@H](C)C3)c[nH]c12 | > 300000 | 10.8 | – | – |
| O=C(C(=O)N1CCN(C(=O)c2ccccc2)CC1)c1c[nH]c2c(-n3nc4ccccc4n3)ccnc12 | 124000 | 0.21 | – | – |
| O=C(C(=O)N1CCN(C(=O)c2ccccc2)CC1)c1c[nH]c2c(-n3nnc4ccccc43)ccnc12 | 246000 | 23.6 | – | – |
| O=C(C(=O)N1CCN(C(=O)c2ccccc2)CC1)c1c[nH]c2c(-n3nnc4cccnc43)ccnc12 | > 300000 | 10.6 | – | – |
| C[C@@H]1CN(C(=O)C(=O)c2c[nH]c3c(Cl)ccnc23)CCN1C(=O)c1ccccc1 | 300000 | 11.6 | – | – |
| C[C@@H]1CN(C(=O)C(=O)c2c[nH]c3c(-c4cccs4)ccnc23)CCN1C(=O)c1ccccc1 | 168000 | 0.24 | – | – |
| Cc1csc(-c2ccnc3c(C(=O)C(=O)N4CCN(C(=O)c5ccccc5)[C@H](C)C4)c[nH]c23)c1 | 123000 | 0.21 | – | – |
| Cc1cnc(-c2ccnc3c(C(=O)C(=O)N4CCN(C(=O)c5ccccc5)[C@H](C)C4)c[nH]c23)s1 | 28000 | 0.71 | – | – |
| Cc1csc(-c2ccnc3c(C(=O)C(=O)N4CCN(C(=O)c5ccccc5)[C@H](C)C4)c[nH]c23)n1 | 30000 | 0.19 | – | – |
| C[C@@H]1CN(C(=O)C(=O)c2c[nH]c3c(-n4nccn4)ccnc23)CCN1C(=O)c1ccccc1 | 300000 | 0.44 | 78 | 3.3 |
| Cc1ccn(-c2ccnc3c(C(=O)C(=O)N4CCN(C(=O)c5ccccc5)[C@H](C)C4)c[nH]c23)n1 | 300000 | 0.46 | – | – |
| O=C(C(=O)N1CCN(C(=O)c2ccccc2)CC1)c1c[nH]c2c(-c3ccccn3)ccnc12 | 231000 | 0.93 | – | – |
| O=C(C(=O)N1CCN(C(=O)c2ccccc2)CC1)c1c[nH]c2c(-c3cnccn3)ccnc12 | > 300000 | 1.71 | – | – |
| COc1cccc(-c2ccnc3c(C(=O)C(=O)N4CCN(C(=O)c5ccccc5)CC4)c[nH]c23)n1 | 174000 | 7.4 | – | – |

| SMILES | CC50 at 72 h [1] [nM] | EC50 [2] [nM] | F (Rattus norvegicus [3]) [%] | AUC (Rattus norvegicus [4]) [µM·h] |
| --- | --- | --- | --- | --- |
| O=C(C(=O)N1CCN(C(=O)c2ccccc2)CC1)c1c[nH]c2c(-n3cncn3)ccnc12 | > 300000 | 0.64 | – | – |
| O=C(C(=O)N1CCN(C(=O)c2ccccc2)CC1)c1c[nH]c2c(-n3ccnn3)ccnc12 | > 300000 | 0.88 | – | – |
| O=C(C(=O)N1CCN(C(=O)c2ccccc2)CC1)c1c[nH]c2c(-n3cccn3)ccnc12 | > 300000 | 0.89 | – | – |
| O=C(C(=O)N1CCN(C(=O)c2ccccc2)CC1)c1c[nH]c2c(Cl)ccnc12 | > 300000 | 18.4 | – | – |
| COc1ccnc2c(C(=O)C(=O)N3CCN(C(=O)c4ccccc4)CC3)c[nH]c12 | > 300000 | 12.3 | – | – |
| Cc1csc(-c2ccnc3c(C(=O)C(=O)N4CCN(C(=O)c5ccccc5)CC4)c[nH]c23)c1 | 85000 | 0.02 | – | – |
| CC(=O)c1ccc(-c2ccnc3c(C(=O)C(=O)N4CCN(C(=O)c5ccccc5)CC4)c[nH]c23)s1 | 268000 | 0.29 | – | – |
| O=C(C(=O)N1CCN(C(=O)c2ccccc2)CC1)c1c[nH]c2c(-c3nccs3)ccnc12 | 150000 | 0.21 | – | – |
| O=C(C(=O)N1CCN(C(=O)c2ccccc2)CC1)c1c[nH]c2c(-c3cncs3)ccnc12 | > 300000 | 0.09 | – | – |
| Cc1csc(-c2ccnc3c(C(=O)C(=O)N4CCN(C(=O)c5ccccc5)CC4)c[nH]c23)n1 | 23000 | 0.2 | – | – |
| Cc1cnc(-c2ccnc3c(C(=O)C(=O)N4CCN(C(=O)c5ccccc5)CC4)c[nH]c23)s1 | 251000 | 0.52 | – | – |
| CNC(=O)c1ccnc2c(C(=O)C(=O)N3CCN(C(=O)c4ccccc4)C[C@H]3C)c[nH]c12 | > 300000 | 2.48 | – | – |
| COc1ccnc2c(C(=O)C(=O)N3CCN(C(=O)c4ccccc4)C[C@H]3C)c[nH]c12 | > 300000 | 0.63 | – | – |
| COc1ccnc2c(C(=O)C(=O)N3CCN(C(=O)c4ccccc4)C[C@H]3C)cn(C)c12 | > 300000 | 7.37 | – | – |
| COc1ccc(-c2ccnc3c(C(=O)C(=O)N4CCN(C(=O)c5ccccc5)C[C@H]4C)c[nH]c23)cc1 | > 300000 | 0.32 | – | – |
| C[C@@H]1CN(C(=O)c2ccccc2)CCN1C(=O)C(=O)c1c[nH]c2c(-c3cncnc3)ccnc12 | 35300 | 0.68 | – | – |
| C[C@@H]1CN(C(=O)c2ccccc2)CCN1C(=O)C(=O)c1c[nH]c2c(-c3cnccn3)ccnc12 | 15300 | 0.27 | – | – |
| C[C@@H]1CN(C(=O)c2ccccc2)CCN1C(=O)C(=O)c1c[nH]c2c(C(=O)Nc3nccs3)ccnc12 | > 300000 | 0.43 | – | – |
| Cc1csc(NC(=O)c2ccnc3c(C(=O)C(=O)N4CCN(C(=O)c5ccccc5)C[C@H]4C)c[nH]c23)n1 | > 300000 | 3.4 | – | – |

| SMILES | CC50 at 72 h [1] [nM] | EC50 [2] [nM] | F (Rattus norvegicus [3]) [%] | AUC (Rattus norvegicus [4]) [µM·h] |
| --- | --- | --- | --- | --- |
| CON(C)C(=O)c1ccnc2c(C(=O)C(=O)N3CCN(C(=O)c4ccccc4)C[C@H]3C)c[nH]c12 | > 300000 | 61.1 | – | – |
| C[C@@H]1CN(C(=O)c2ccccc2)CCN1C(=O)C(=O)c1c[nH]c2c(-c3cccs3)ccnc12 | > 300000 | 0.02 | – | – |
| C[C@@H]1CN(C(=O)c2ccccc2)CCN1C(=O)C(=O)c1c[nH]c2c(-c3ccsc3)ccnc12 | 94500 | 0.18 | – | – |
| C[C@@H]1CN(C(=O)c2ccccc2)CCN1C(=O)C(=O)c1c[nH]c2c(-c3cc4ccccc4s3)ccnc12 | 170000 | 0.1 | – | – |
| Cc1csc(-c2ccnc3c(C(=O)C(=O)N4CCN(C(=O)c5ccccc5)C[C@H]4C)c[nH]c23)c1 | 48900 | 0.04 | – | – |
| C[C@@H]1CN(C(=O)c2ccccc2)CCN1C(=O)C(=O)c1c[nH]c2c(-c3nccs3)ccnc12 | > 300000 | 0.1 | – | – |
| C[C@@H]1CN(C(=O)c2ccccc2)CCN1C(=O)C(=O)c1c[nH]c2c(-c3ncco3)ccnc12 | > 300000 | 0.18 | – | – |
| Cc1noc(C)c1-c1ccnc2c(C(=O)C(=O)N3CCN(C(=O)c4ccccc4)C[C@H]3C)c[nH]c12 | > 300000 | 1.05 | – | – |
| Cc1ccnc2c(C(=O)C(=O)N3CCN(C(=O)c4ccccc4)CC3)c[nH]c12 | > 300000 | 46.3 | – | – |
| COc1cncc2[nH]cc(C(=O)C(=O)N3CCN(C(=O)c4ccccc4)C[C@H]3C)c12 | 6000 | 1.3 | – | – |
| C[C@@H]1CN(C(=O)c2ccccc2)CCN1C(=O)C(=O)c1c[nH]c2c(Cl)ccnc12 | > 300000 | 1.22 | – | – |
| Cc1ccnc2c(C(=O)C(=O)N3CCN(C(=O)c4ccccc4)C[C@H]3C)c[nH]c12 | > 300000 | 3.06 | – | – |
| C[C@@H]1CN(C(=O)c2ccccc2)CCN1C(=O)C(=O)c1c[nH]c2c(C(=O)O)ccnc12 | > 300000 | 3.38 | – | – |
| C[C@@H]1CN(C(=O)c2ccccc2)CCN1C(=O)C(=O)c1c[nH]c2ncccc12 | 280000 | 1.7 | – | – |
| C[C@@H]1CN(C(=O)c2ccccc2)CCN1C(=O)C(=O)c1c[nH]c2ccccc12 | 195000 | 4.9 | – | – |
| COc1cccc2[nH]cc(C(=O)C(=O)N3CCN(C(=O)c4ccccc4)C[C@H]3C)c12 | 250000 | 0.8 | – | – |
| C[C@@H]1CN(C(=O)c2ccccc2)CCN1C(=O)C(=O)c1c[nH]c2cnccc12 | > 300000 | 22 | – | – |
| C[C@@H]1CN(C(=O)c2ccccc2)CCN1C(=O)C(=O)c1c[nH]c2cccnc12 | > 300000 | 1.6 | – | – |
| C[C@@H]1CN(C(=O)c2ccccc2)CCN1C(=O)C(=O)c1c[nH]c2ccncc12 | > 300000 | 580 | – | – |
